Source: patent publication US8450332B2, “LIMK2 inhibitors, compositions comprising them, and methods of their use” (Lexicon Pharmaceuticals, Inc., priority 2008, dated 2013)

biological target: T1, LIMK2 (Homo sapiens, UniProt P53671); assay: In vitro LIMK2 inhibition assay (33P incorporation into myelin basic protein flash plates); type: biochemical
T1 construct: His tag (histidine-tagged; pFastBacHT vector); made in house; host or cells: Sf9 insect cells (BAC-to-BAC baculovirus system)
Procedure: Using the procedures described herein and methods known in the art, the additional compounds listed below in Table 1 were prepared. The LIMK2 IC50 data that is provided below for some of the compounds was determined using the assay described in Example 32.
An in vitro assay used to identify LIMK2 inhibitors was developed. The analytical readout was the incorporation of ^33P from ATP substrate into immobilized myelin basic protein coated flash plates (Perkin Elmer Biosciences), which were counted on a scintillation counter equipped with a plate reader (TopCount, Packard Bioscience, Meriden, Conn.). Using 384 well flat MBP flashplates, total assay volume was 50 μl. The HTS program utilized a Biomek FX for dilution.
For each assay, the ingredients and conditions were as follows: 200 ng of enzyme was incubated in assay buffer (1× assay buffer contains 30 mM HEPES (pH 8.0), 5 mM DTT, and 10 mM MgCl2), 10 μM ATP, 0.2 μCi [gamma-^33P]-ATP and 10 μM of potential inhibitory compound. The reaction was incubated at room temperature for 60 minutes, washed 3 times with 75 μl of stop/wash buffer (1× stop/was buffer contains 50 mM EDTA and 20 mM Tris (pH 7.4)), and then the plates were read on the scintillation counter. Different concentrations of staurosporine (400 nM, 200 nM, 100 nM and 50 nM; purchased from BIOMOL (Plymouth Meeting, Pa.)) were used as controls on each plate.

T1 sequence (P53671 whole entry): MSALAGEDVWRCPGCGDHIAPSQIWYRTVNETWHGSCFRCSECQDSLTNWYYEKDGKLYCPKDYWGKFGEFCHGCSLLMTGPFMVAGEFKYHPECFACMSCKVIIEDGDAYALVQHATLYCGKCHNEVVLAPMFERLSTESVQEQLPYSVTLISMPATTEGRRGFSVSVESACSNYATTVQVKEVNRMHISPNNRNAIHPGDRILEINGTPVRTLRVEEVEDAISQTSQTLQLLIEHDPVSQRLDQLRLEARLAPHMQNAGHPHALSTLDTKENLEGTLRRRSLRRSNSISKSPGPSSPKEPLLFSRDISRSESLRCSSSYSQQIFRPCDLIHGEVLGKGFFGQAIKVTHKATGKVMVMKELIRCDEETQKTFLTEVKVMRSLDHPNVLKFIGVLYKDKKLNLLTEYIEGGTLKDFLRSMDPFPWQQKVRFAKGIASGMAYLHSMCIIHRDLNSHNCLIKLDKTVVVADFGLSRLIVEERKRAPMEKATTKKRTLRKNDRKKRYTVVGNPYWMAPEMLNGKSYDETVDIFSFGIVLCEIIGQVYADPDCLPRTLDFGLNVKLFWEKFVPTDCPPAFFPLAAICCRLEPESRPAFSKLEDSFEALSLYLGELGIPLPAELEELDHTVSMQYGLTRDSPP

Row | SMILES | IC50 [nM]
1 | Cc1c[nH]c2ncnc(N3CCC(CCN4CCOCC4)(C(=O)Nc4cccc(OC(=O)N(C)C)c4)CC3)c12 [3-(1-(5-methyl-7H-pyrrolo[2,3-d]pyrimidin-4-yl)-4-(2-morpholinoethyl)piperidine-4-carboxamido)phenyl dimethylcarbamate] | < 250
2 | Cc1c[nH]c2ncnc(N3CCC(C(=O)Nc4cccc(OC(=O)N(C)C)c4)(c4nn[nH]n4)CC3)c12 [3-(1-(5-methyl-7H-pyrrolo[2,3-d]pyrimidin-4-yl)-4-(2H-tetrazol-5-yl)piperidine-4-carboxamido)phenyl dimethylcarbamate] | < 250
3 | Cc1c[nH]c2ncnc(N3CCC(CNC(=O)N4CCOCC4)(C(=O)Nc4cccc(OC(=O)N(C)C)c4)CC3)c12 [3-(1-(5-methyl-7H-pyrrolo[2,3-d]pyrimidin-4-yl)-4-((morpholine-4-carboxamido)methyl)piperidine-4-carboxamido)phenyl dimethylcarbamate] | < 250
4 | Cc1c[nH]c2ncnc(N3CCC(CNS(N)(=O)=O)(C(=O)Nc4cccc(OC(=O)N(C)C)c4)CC3)c12 [3-(1-(5-methyl-7H-pyrrolo[2,3-d]pyrimidin-4-yl)-4-((sulfamoylamino)methyl)piperidine-4-carboxamido)phenyl dimethylcarbamate] | < 250
5 | Cc1c[nH]c2ncnc(N3CCC(CNS(C)(=O)=O)(C(=O)Nc4cccc(OC(=O)N(C)C)c4)CC3)c12 [3-(1-(5-methyl-7H-pyrrolo[2,3-d]pyrimidin-4-yl)-4-(methylsulfonamidomethyl)piperidine-4-carboxamido)phenyl dimethylcarbamate] | < 250
6 | Cc1c[nH]c2ncnc(N3CCC(CN4CCOCC4)(C(=O)Nc4cccc(OC(=O)N(C)C)c4)CC3)c12 [3-(1-(5-methyl-7H-pyrrolo[2,3-d]pyrimidin-4-yl)-4-(morpholinomethyl)piperidine-4-carboxamido)phenyl dimethylcarbamate] | < 250
7 | Cc1c[nH]c2ncnc(N3CCC(CNC(N)=O)(C(=O)Nc4cccc(OC(=O)N(C)C)c4)CC3)c12 [3-(1-(5-methyl-7H-pyrrolo[2,3-d]pyrimidin-4-yl)-4-(ureidomethyl)piperidine-4-carboxamido)phenyl dimethylcarbamate] | < 250
8 | CCCC1(C(=O)Nc2cccc(OC(=O)N(C)C)c2)CCN(c2ncnc3[nH]cc(C)c23)CC1 [3-(1-(5-methyl-7H-pyrrolo[2,3-d]pyrimidin-4-yl)-4-propylpiperidine-4-carboxamido)phenyl dimethylcarbamate] | < 250
9 | Cc1c[nH]c2ncnc(N3CCC(NCCOCc4ccccc4)(C(=O)Nc4cccc(OC(=O)N(C)C)c4)CC3)c12 [3-(4-(2-(benzyloxy)ethylamino)-1-(5-methyl-7H-pyrrolo[2,3-d]pyrimidin-4-yl)piperidine-4-carboxamido)phenyl dimethylcarbamate] | < 250
10 | Cc1c[nH]c2ncnc(N3CCC(NCCNC(=O)OC(C)(C)C)(C(=O)Nc4cccc(OC(=O)N(C)C)c4)CC3)c12 [3-(4-(2-(tert-butoxycarbonylamino)ethylamino)-1-(5-methyl-7H-pyrrolo[2,3-d]pyrimidin-4-yl)piperidine-4-carboxamido)phenyl dimethylcarbamate] | < 250
11 | Cc1c[nH]c2ncnc(N3CCC(NCCN)(C(=O)Nc4cccc(OC(=O)N(C)C)c4)CC3)c12 [3-(4-(2-aminoethylamino)-1-(5-methyl-7H-pyrrolo[2,3-d]pyrimidin-4-yl)piperidine-4-carboxamido)phenyl dimethylcarbamate] | < 250
12 | Cc1c[nH]c2ncnc(N3CCC(NCCO)(C(=O)Nc4cccc(OC(=O)N(C)C)c4)CC3)c12 [3-(4-(2-hydroxyethylamino)-1-(5-methyl-7H-pyrrolo[2,3-d]pyrimidin-4-yl)piperidine-4-carboxamido)phenyl dimethylcarbamate] | < 250
13 | Cc1c[nH]c2ncnc(N3CCC(CNC(=O)C4(N)CC4)(C(=O)Nc4cccc(OC(=O)N(C)C)c4)CC3)c12 [3-(4-((1-aminocyclopropanecarboxamido)methyl)-1-(5-methyl-7H-pyrrolo[2,3-d]pyrimidin-4-yl)piperidine-4-carboxamido)phenyl dimethylcarbamate] | < 250
14 | Cc1c[nH]c2ncnc(N3CCC(CNC(=O)c4cnn(C)c4)(C(=O)Nc4cccc(OC(=O)N(C)C)c4)CC3)c12 [3-(4-((1-methyl-1H-pyrazole-4-carboxamido)methyl)-1-(5-methyl-7H-pyrrolo[2,3-d]pyrimidin-4-yl)piperidine-4-carboxamido)phenyl dimethylcarbamate] | < 250
15 | Cc1c[nH]c2ncnc(N3CCC(CNC(=O)C4(NC(=O)OC(C)(C)C)CC4)(C(=O)Nc4cccc(OC(=O)N(C)C)c4)CC3)c12 [3-(4-((1-tert-butoxycarbonylaminocyclopropanecarboxamido)methyl)-1-(5-methyl-7H-pyrrolo[2,3-d]pyrimidin-4-yl)piperidine-4-carboxamido)phenyl dimethylcarbamate] | < 250
16 | Cc1c[nH]c2ncnc(N3CCC(Cc4ncc[nH]4)(C(=O)Nc4cccc(OC(=O)N(C)C)c4)CC3)c12 [3-(4-((1H-imidazol-2-yl)methyl)-1-(5-methyl-7H-pyrrolo[2,3-d]pyrimidin-4-yl)piperidine-4-carboxamido)phenyl dimethylcarbamate] | < 250
17 | Cc1c[nH]c2ncnc(N3CCC(Cc4nnn[nH]4)(C(=O)Nc4cccc(OC(=O)N(C)C)c4)CC3)c12 [3-(4-((1H-tetrazol-5-yl)methyl)-1-(5-methyl-7H-pyrrolo[2,3-d]pyrimidin-4-yl)piperidine-4-carboxamido)phenyl dimethylcarbamate] | < 250
18 | Cc1c[nH]c2ncnc(N3CCC(CNC(=O)CC4NC(=O)NC4=O)(C(=O)Nc4cccc(OC(=O)N(C)C)c4)CC3)c12 (stereo not shown) [3-(4-((2-(2,5-dioxoimidazolidin-4-yl)acetamido)methyl)-1-(5-methyl-7H-pyrrolo[2,3-d]pyrimidin-4-yl)piperidine-4-carboxamido)phenyl dimethylcarbamate] | < 250
19 | COCCOCC(=O)NCC1(C(=O)Nc2cccc(OC(=O)N(C)C)c2)CCN(c2ncnc3[nH]cc(C)c23)CC1 [3-(4-((2-(2-methoxyethoxy)acetamido)methyl)-1-(5-methyl-7H-pyrrolo[2,3-d]pyrimidin-4-yl)piperidine-4-carboxamido)phenyl dimethylcarbamate] | < 250
20 | Cc1c[nH]c2ncnc(N3CCC(CNC(=O)CN(C)C)(C(=O)Nc4cccc(OC(=O)N(C)C)c4)CC3)c12 [3-(4-((2-(dimethylamino)acetamido)methyl)-1-(5-methyl-7H-pyrrolo[2,3-d]pyrimidin-4-yl)piperidine-4-carboxamido)phenyl dimethylcarbamate] | < 250
21 | Cc1c[nH]c2ncnc(N3CCC(CNC(=O)CN)(C(=O)Nc4cccc(OC(=O)N(C)C)c4)CC3)c12 [3-(4-((2-aminoacetamido)methyl)-1-(5-methyl-7H-pyrrolo[2,3-d]pyrimidin-4-yl)piperidine-4-carboxamido)phenyl dimethylcarbamate] | < 250
22 | COCC(=O)NCC1(C(=O)Nc2cccc(OC(=O)N(C)C)c2)CCN(c2ncnc3[nH]cc(C)c23)CC1 [3-(4-((2-methoxyacetamido)methyl)-1-(5-methyl-7H-pyrrolo[2,3-d]pyrimidin-4-yl)piperidine-4-carboxamido)phenyl dimethylcarbamate] | < 250
23 | Cc1c[nH]c2ncnc(N3CCC(CNC(=O)C(C)(CO)CO)(C(=O)Nc4cccc(OC(=O)N(C)C)c4)CC3)c12 [3-(4-((3-hydroxy-2-(hydroxymethyl)-2-methylpropanamido)methyl)-1-(5-methyl-7H-pyrrolo[2,3-d]pyrimidin-4-yl)piperidine-4-carboxamido)phenyl dimethylcarbamate] | < 250
24 | COCCC(=O)NCC1(C(=O)Nc2cccc(OC(=O)N(C)C)c2)CCN(c2ncnc3[nH]cc(C)c23)CC1 [3-(4-((3-methoxypropanamido)methyl)-1-(5-methyl-7H-pyrrolo[2,3-d]pyrimidin-4-yl)piperidine-4-carboxamido)phenyl dimethylcarbamate] | < 250
25 | Cc1cc(C(=O)NCC2(C(=O)Nc3cccc(OC(=O)N(C)C)c3)CCN(c3ncnc4[nH]cc(C)c34)CC2)n[nH]1 [3-(4-((5-methyl-1H-pyrazole-3-carboxamido)methyl)-1-(5-methyl-7H-pyrrolo[2,3-d]pyrimidin-4-yl)piperidine-4-carboxamido)phenyl dimethylcarbamate] | < 250
26 | Cc1c[nH]c2ncnc(N3CCC(CNS(=O)(=O)N(C)C)(C(=O)Nc4cccc(OC(=O)N(C)C)c4)CC3)c12 [3-(4-((N,N-dimethylsulfamoylamino)methyl)-1-(5-methyl-7H-pyrrolo[2,3-d]pyrimidin-4-yl)piperidine-4-carboxamido)phenyl dimethylcarbamate] | < 250
27 | Cc1c[nH]c2ncnc(N3CCC(Cc4nnnn4Cc4ccccc4)(C(=O)Nc4cccc(OC(=O)N(C)C)c4)CC3)c12 [3-(4-((l-benzyl-1H-tetrazol-5-yl)methyl)-1-(5-methyl-7H-pyrrolo[2,3-d]pyrimidin-4-yl)piperidine-4-carboxamido)phenyl dimethylcarbamate] | < 250
28 | COC(=O)NCC1(C(=O)Nc2cccc(OC(=O)N(C)C)c2)CCN(c2ncnc3[nH]cc(C)c23)CC1 [3-(4-((methoxycarbonylaminomethyl)-1-(5-methyl-7H-pyrrolo[2,3-d]pyrimidin-4-yl)piperidine-4-carboxamido)phenyl dimethylcarbamate] | < 250
